Laboratory results from PMC6057649, “Development of NanoLuc-PEST expressing Leishmania mexicana as a new drug discovery tool for axenic- and intramacrophage-based assays” (PLoS Neglected Tropical Diseases, 2018).

Test system: NanoLuc-PEST expressing L. mexicana axenic amastigotes
Assay: microbe, parasite or virus in culture
Assay type: cell-based
Conditions: for Relative Bioluminescence (%) / viability at 2 µM / viability at 10 µM: 72 hours, relative to DMSO only control, n = 4; for EC50: hit compounds from the axenic amastigote screen, S3 Table, read-out: EC50, Axenic Amastigotes; for viability at 2 µM / viability at 10 µM: Leishmania mexicana, read-out: Relative Bioluminescence (%)

| Compound | Relative Bioluminescence (%) (2 µM compound) | Relative Bioluminescence (%) (10 µM compound) | EC50 [nM] | viability at 2 µM (2 µM compound) [%] | viability at 10 µM (10 µM compound) [%] |
| --- | --- | --- | --- | --- | --- |
| CN(C(=O)c1cc2c(-c3cncnc3)cccc2[nH]1)c1ccccc1 [MMV024443] | 64.75 | 32.60 |  |  |  |
| Nc1ncnc2c1ncn2C[C@@H](O)[C@@H](O)C(=O)O [MMV689255, D-Eritadenine] | 68.65 | 73.04 |  |  |  |
| O=C(C(Cc1c[nH]c2ccccc12)NS(=O)(=O)c1ccc(Cl)cc1)N1CCCCC1 (centres unmarked) [MMV085210] | 65.83 | 73.33 |  |  |  |
| CN(C)c1cc(NC(=O)Nc2ccccc2)c2ccccc2n1 [MMV006901] | 96.82 | 107.15 |  |  |  |
| O=C(Nc1cccnc1)c1c(O)c2cccc3c2n(c1=O)CC3 [MMV676395] | 63.89 | 0.76 |  |  |  |
| COc1ccc(C2CC(c3cccs3)=NN2C(=O)c2ccco2)cc1OC (centres unmarked) [MMV019234] | 106.08 | 39.61 |  |  |  |
| FC(F)(F)c1cnc(Sc2nnc(-c3ccncc3)o2)c(Cl)c1 [MMV011765] | 84.80 | 45.24 |  |  |  |
| COc1ccc(C2(C(=O)Nc3ccc(Br)cc3)CCCC2)cc1 [MMV200748] | 64.99 | 61.91 |  |  |  |
| Cc1cccnc1NC(=O)c1cccc(OCc2c(C)noc2C)c1 [MMV688793] | 74.59 | 52.13 |  |  |  |
| Cc1cc(Nc2ccncc2)n2nc(C)c(-c3ccccc3Cl)c2n1 [MMV016136] | 83.56 | 91.85 |  |  |  |
| Clc1cccc(CO[C@H]2CCc3ccccc3[C@@H]2n2ccnn2)c1 [MMV676159] | 101.47 | 98.27 |  |  |  |
| CCN(CC)CCCN1CCN(C(=O)c2cccc(-c3noc(C(F)(F)F)n3)c2)CC1 [MMV022236] | 74.51 | 94.61 |  |  |  |
| O=C(NC1=NCCS1)c1sc2cc(F)ccc2c1Cl [MMV676584] | 83.30 | 89.36 |  |  |  |
| O=C(Nc1c(O)cccc1-c1nc2c(C(=O)O)cccc2o1)c1cc(-c2ccccc2)on1 [MMV676008] | 79.00 | -1.15 |  |  |  |
| O=C(Nc1nnc(-c2ccc(Cl)s2)o1)c1ccc(Cl)s1 [MMV676501] | -0.04 | -0.69 | 300 |  |  |
| Cc1ccc(C(=O)Nc2ccc(S(=O)(=O)O)c3cc(S(=O)(=O)O)cc(S(=O)(=O)O)c23)cc1NC(=O)c1cccc(NC(=O)Nc2cccc(C(=O)Nc3cc(C(=O)Nc4ccc(S(=O)(=O)O)c5cc(S(=O)(=O)O)cc(S(=O)(=O)O)c45)ccc3C)c2)c1 [MMV637953, Suramin, reference compound] |  |  |  | 105 | 117 |
| CNC(=O)CNc1nc(-c2ccccn2)nc2scc(-c3ccccc3)c12 [MMV1029203] | 83.99 | 52.70 |  |  |  |
| CC(C)(C)c1ccc(N[C@@H]2CCCC[C@H]2NC(=O)c2ccco2)cc1 [MMV675969] | 104.76 | 77.56 |  |  |  |
| c1csc(-c2cnc3sc(NCC4CCOCC4)nn23)c1 [MMV010764] | 69.50 | 31.69 |  |  |  |
| CNc1snc(C)c1C(=O)NCCOc1ccc(OC)cc1 [MMV688554] | 117.68 | 66.57 |  |  |  |

| Compound | Relative Bioluminescence (%) (2 µM compound) | Relative Bioluminescence (%) (10 µM compound) | EC50 [nM] | viability at 2 µM (2 µM compound) [%] | viability at 10 µM (10 µM compound) [%] |
| --- | --- | --- | --- | --- | --- |
| c1ccc(C[C@@H]2CN(c3nccc(Oc4ccc(-n5ccnc5)cc4)n3)CCN2)cc1 [MMV687749] | 66.01 | 56.67 |  |  |  |
| COC(=O)c1c(NC(=O)c2c(F)c(F)c(F)c(F)c2F)sc2c1CCCCC2 [MMV461553] | 48.03 | -0.44 |  |  |  |
| O=C(N[C@H](Cc1ccccc1)C(=O)Nc1ccccc1N1CCOCC1)c1cccs1 [MMV688845] | 64.60 | 67.13 |  |  |  |
| O=C1O[C@@H](CO)CN1c1cc(F)c(C2=CCN(Cc3ccccc3)CC2)c(F)c1 [MMV687729] | 76.47 | 62.67 |  |  |  |
| NCC(c1cccs1)S(=O)(=O)c1ccccc1 (centres unmarked) [MMV688557] | 71.96 | 58.46 |  |  |  |
| Cc1cc(C)cc(COc2ccc3c(C)c(CCC(=O)O)c(=O)oc3c2C)c1 [MMV676476] | 1.36 | -0.27 | 580 |  |  |
| COc1ccc(Cl)cc1NC(=O)CN(C)C(=O)c1cnn(-c2ccccc2)n1 [MMV020710] | 102.08 | 128.98 |  |  |  |
| COc1cc(NC(=O)Cc2nn(C)c(=O)c3ccccc23)ccc1Cl [MMV676053] | 106.26 | 78.76 |  |  |  |
| CC(C(=O)Nc1ccc2oc(-c3ccncc3)nc2c1)c1ccccc1 (centres unmarked) [MMV688471] | 59.14 | 49.33 |  |  |  |
| COc1ccc(C2=NN(C3CCCCCC3)C(=O)C2(C)C)cc1OCCCCOc1ccc(-c2nn[nH]n2)cc1 [MMV690028] | 55.46 | 1.50 |  |  |  |
| CCCCc1ccc(NC(=O)Nc2ccc(O[C@H]3CCCC[C@@H]3N(C)c3ccccc3)c(F)c2)cc1 [MMV676063] | 99.42 | 66.65 |  |  |  |
| O=C(Nc1nnc(-c2ccc(Cl)cc2)o1)c1cccc(C(F)(F)F)c1 [MMV102872] | 0.33 | -0.65 | 810 |  |  |
| CCOc1ccccc1NC(C)C(=O)Nc1cc(C(F)(F)F)ccc1N1CCOCC1 (centres unmarked) [MMV407834] | 70.36 | 63.07 |  |  |  |
| COc1ccc(C2=NCCN2)cc1-c1cn(-c2cccc(C3=NCCN3)c2)nn1 [MMV688547] | 85.85 | 128.07 |  |  |  |
| Cc1noc(C)c1C(=O)N1CCCC(c2[nH]c3c(C)cccc3c2-c2ccncc2)C1 (centres unmarked) [MMV020623] | 68.14 | 86.96 |  |  |  |
| CCN(CC)S(=O)(=O)c1ccc(Cl)c(C(=O)Nc2ccc3nc(C)sc3c2)c1 [MMV019721] | 65.53 | 69.43 |  |  |  |
| CC1CCCN(C(=O)C(C)Nc2cc(Cl)ccc2N2CCOCC2)C1 (centres unmarked) [MMV020388] | 121.02 | 143.84 |  |  |  |
| CC(C)c1ncc(-c2ccncc2)c(C2CCC(CNC(=O)c3cccnc3)CC2)n1 (centres unmarked) [MMV676442] | 118.75 | 113.29 |  |  |  |
| CN1CCN(c2cc(-c3ccc(F)cc3)nc(-c3ccncc3)n2)CC1 [MMV688888] | 78.28 | 89.99 |  |  |  |
| CC(C)n1nc(-c2cc3c(Cl)cccc3[nH]2)c2c(N)ncnc21 [MMV688417] | 76.07 | -0.98 |  |  |  |

| Compound | Relative Bioluminescence (%) (2 µM compound) | Relative Bioluminescence (%) (10 µM compound) | EC50 [nM] | viability at 2 µM (2 µM compound) [%] | viability at 10 µM (10 µM compound) [%] |
| --- | --- | --- | --- | --- | --- |
| CCc1cc(=O)n(C)c(SC(C)C(=O)Nc2ccc(F)cc2)n1 (centres unmarked) [MMV688980] | 76.34 | 48.08 |  |  |  |
| COc1ccc(OC(C)C(=O)Nc2ccc(Cl)cc2C)cc1 (centres unmarked) [MMV202458] | 83.71 | 79.97 |  |  |  |
| CCn1ncc2c(NC3CCOCC3)c(CNC(=O)c3ccnn3C)c(C)nc21 [MMV026356] | 76.21 | 65.05 |  |  |  |
| CC(C)=CCC/C(C)=C\CNCCNC1C2CC3CC(C2)CC1C3 (centres unmarked) [MMV687273] | 68.48 | 81.32 |  |  |  |
| CCc1ccccc1-n1c(C)cn2c3c(=O)n(C(C(=O)OC)C(C)C)c(=O)n(C)c3nc12 (centres unmarked) [MMV688550] | 66.32 | 56.13 |  |  |  |
| Nc1ncnc2n[nH]c(Cc3cccc4ccccc34)c12 [MMV688469] | 103.98 | 53.28 |  |  |  |
| O=C1Nc2ccc(Br)cc2C12NCCc1c2[nH]c2ccccc12 (centres unmarked) [MMV006239] | 107.64 | 108.03 |  |  |  |
| COc1ccc(S(=O)(=O)Nc2ccc(CN3CCN(C(=O)c4cccc(C#N)c4)CC3)cc2)cc1 [MMV689029] | 67.41 | 57.59 |  |  |  |
| C[C@H](C(N)=O)N1CCCC[C@H]1c1ccc(OCc2cccc(F)c2)cc1 [MMV676269] | 85.78 | 76.17 |  |  |  |
| COc1ccc2nc(C)cc(OCC(=O)Nc3ccccc3OC)c2c1 [MMV687188] | 75.17 | 98.10 |  |  |  |
| Nc1ncnc2c1ncn2[C@@H]1O[C@H](COS(=O)(=O)NC(=O)c2ccccc2O)[C@@H](O)[C@H]1O [MMV687700] | 67.55 | 61.64 |  |  |  |
| CC1=Nc2ccc(Cl)cc2C(c2ccccc2)N1CCNC(=O)CN(C)C (centres unmarked) [MMV688410] | 114.60 | 63.15 |  |  |  |
| Cc1ccc(Oc2ccc(NC(=O)CNc3ccccc3N3CCCC3=O)cc2)cc1 [MMV020512] | 56.59 | 56.11 |  |  |  |
| Clc1cccc(C(c2ccc(CN3CCNCC3)cc2)n2ccnc2)c1 (centres unmarked) [MMV663250] | 96.52 | 69.77 |  |  |  |
| CON=C(C(=O)OC)c1ccccc1CON=C(C)c1cccc(C(F)(F)F)c1 [MMV688754, Trifloxystrobin] |  |  |  | 67.6 | -1.92 |
| CCCCS(=O)(=O)Nc1ccc2cnn(C)c2c1 [MMV687145] | 132.61 | 130.77 |  |  |  |
| COc1ccccc1CNC(=O)c1cc(C2CC2)nc2c1cnn2C(C)C [MMV020517] | 97.70 | 63.10 |  |  |  |
| O=C(NCCc1ccn(-c2ccccc2)n1)C1CCCCC1 [MMV688795] | 79.12 | 86.70 |  |  |  |
